Data taken from US12036301B2, “Deodorant and antiperspirant compositions” (The Procter & Gamble Company, priority 2017, dated 2024).
Structures can show the parent of a compound that is named as a salt.

Columns and labels:
[1] = iron binding affinity; NIST Standard Reference Database 46; cited from earlier work
[2] = test system: two key underarm bacteria strains; assay: Raw material microbial inhibition, verbal summary for both strains; assay type: cell-based, C. mucofaciens and S. epidermidis; details: verbal summary of Table 2, both strains
Source text: The data in Table 1 above was generated with the following test method.
It is understood that when not specifically noted in this procedure: • a) All materials, reagents and equipment required for this procedure are of appropriate design and condition of cleanliness and/or sterility as determined by their intended use. • b) The operator has been trained in aseptic technique and has been qualified to perform the procedure and accurately interpret the results. • c) All media required for this procedure was manufactured by a reputable commercial source eg. […] Procedure: (all Procedures Performed in Anaerobic Chamber Except where Noted) 1. […] 2. […] Microbial Strains • Staphylococcus epidermidis (clinical isolate) • Corynebacterium mucofaciens (clinical isolate) 4. Test Procedure Inoculum Preparation • Prior to testing streak organisms for isolation on BHI with 1% Tween 80 plates, wrap with parafilm and place in 37° C. incubator. When isolated colonies appear remove one representative colony from each plate and place each in 5 ml of BHI with 1% Tween 80 media. Incubate at 37° C. with shaking overnight. Inoculate 20 ml BHI with 1% Tween 80 (per 96 deep well plate to be tested) with 20 ul of the overnight culture (1-1000 dilution). Master Plate Preparation • Compounds/formulations to be tested are diluted across a 96 deep well plate as shown below (for a 1% stock solution). […] 800 ul each 1% stock solution+positive control are added to wells C1 through H1. […] 400 ul is then removed from #1 well added to the #2 well and mixed. This is then continued across the plate resulting in a 50% dilution between wells across the plate (this can be easily accomplished with an automatic 8 channel Matrix pipette set to withdraw, dispense and mix).
(§1) In row A of a 96 deep well plate pipette 180 ul of sterile BHI with 1% Tween 80 as a negative growth control. All other wells receive 180 ul of inoculum. From the master plate introduce 20 ul to the corresponding row in the test plate using an 8-channel pipette. Loaded plates are placed on a plate shaker in the 37° C. incubator and incubated overnight. The next day read the O.D. 600 on a plate reader. The MIC is the last well from the right that has no bacterial growth.

C. mucofaciens = assay: Tier 1 Anaerobic MIC Assay; assay type: cell-based, Corynebacterium mucofaciens (clinical isolate); details: raw material, BHI with 1% Tween 80, 37° C. overnight
Source text: (§2) 1. Tier 1 Anaerobic MIC Assay
(§3) The data in Table 1 above was generated with the following test method. The purpose of this assay is to determine if a compound or formulation has an antimicrobial effect in vitro.
(§4) It is understood that when not specifically noted in this procedure: • a) All materials, reagents and equipment required for this procedure are of appropriate design and condition of cleanliness and/or sterility as determined by their intended use. • b) The operator has been trained in aseptic technique and has been qualified to perform the procedure and accurately interpret the results. • c) All media required for this procedure was manufactured by a reputable commercial source eg. Difco, Merck etc. and has been stored and prepared as per manufacturer's instructions. • d) All routine laboratory controls, including but not limited to, media function and growth promotion tests, verification of sterility and use of positive and negative controls are being conducted. Procedure: (all Procedures Performed in Anaerobic Chamber Except where Noted) 1. Apparatus • Incubator at 37° C.; 20-200 ul 12 channel pipette; 5-50 ul 12 channel pipette; 1250 ul 8 channel Thermo Scientific Matrix pipette; 96 well plate shaker (located in incubator); Beckman Coulter deep well cap mat #267005; Beckman Coulter deep 96 well plates #267007; Falcon 96 well tissue culture plates #353072; Vortexer; Culture tubes/caps Disposable sterile gloves; Sterile petri dishes; Standard microbiological lab equipment (sterile pipettes, syringes, tips, loops, etc.); Glass bottles/flasks for media; Autoclave; Parafilm; Spectrophotometer. 2. Media • 0.9% or 0.85% saline solution • BHI agar supplemented with 1% Tween 80 • BHI media supplemented with 1% Tween 80 3. Microbial Strains • Staphylococcus epidermidis (clinical isolate) • Corynebacterium mucofaciens (clinical isolate) 4. Test Procedure Inoculum Preparation • Prior to testing streak organisms for isolation on BHI with 1% Tween 80 plates, wrap with parafilm and place in 37° C. incubator. When isolated colonies appear remove one representative colony from each plate and place each in 5 ml of BHI with 1% Tween 80 media. Incubate at 37° C. with shaking overnight. Inoculate 20 ml BHI with 1% Tween 80 (per 96 deep well plate to be tested) with 20 ul of the overnight culture (1-1000 dilution). Master Plate Preparation • Compounds/formulations to be tested are diluted across a 96 deep well plate as shown below (for a 1% stock solution). 800 ul of 0.85% saline is added to wells A1 and B1 (as these will be the negative and positive control respectively). 800 ul each 1% stock solution+positive control are added to wells C1 through H1. 400 ul 0.85% saline are added to all other wells. 400 ul is then removed from #1 well added to the #2 well and mixed. This is then continued across the plate resulting in a 50% dilution between wells across the plate (this can be easily accomplished with an automatic 8 channel Matrix pipette set to withdraw, dispense and mix).
as §1

S. epidermidis = assay: Tier 1 Anaerobic MIC Assay; assay type: cell-based, Staphylococcus epidermidis (clinical isolate); details: raw material, BHI with 1% Tween 80, 37° C. overnight
Source text: as §2, §3, §4, §1

[3] = intrinsic water solubility independent of pH

| Structure (SMILES) | Log K1 [1] | performance against the bacteria as raw materials [2] | microbial inhibition concentration (MIC), C. mucofaciens (C. mucofaciens) [ppm] | microbial inhibition concentration (MIC), S. epidermidis (S. epidermidis) [ppm] | further results |
| --- | --- | --- | --- | --- | --- |
| O=C(O)CC(O)(CC(=O)O)C(=O)O [Citric Acid] | 11 | – | – | – | – |
| C=CCc1ccc(O)c(OC)c1 [Eugenol] | – | performing well | – | – | – |
| CCOC(=O)CC(O)(CC(=O)OCC)C(=O)OCC [Triethyl citrate] | – | performing well | – | – | – |
| C=CCCCCCCCCC(=O)N[C@@H](Cc1ccccc1)C(=O)O [Sepiwhite] | – | performing well | 2000 | 1000 | – |
| [Ca+2].[Cl-].[Cl-] [CaCl] | – | – | >50000 | >50000 | – |
| CCCCCCCCC(CO)CCCCCC (stereo not shown) [Hexyl Decanol] | – | – | 6062 | 3031 | – |
| CC(C)=CCCC(C)=CC=O [Citral] | – | performing well | – | – | – |
| O=C([O-])[O-].[Ca+2] [Ca Carbonate, calcium carbonate] | – | performing moderately well | >2500 | >2500 | – |
| Cc1cc(CC(C)CC(C)(C)C)n(O)c(=O)c1.NCCO (stereo not shown) [Piroctone olamine, 1-Hydroxy-4-methyl-6-(2,4,4-trimethylpentyl)-2-pyridone monoethanolamine salt] | – | perform particularly well | – | – | LogWSo [3]: −3.22 |
| [Cl-].[Na+] [NaCl] | – | – | >25000 | >25000 | – |
| CC(C(=O)O)N(CC(=O)O)CC(=O)O (stereo not shown) [Methylglycine diacetic acid (MGDA), Methylglycine diacetic acid] | 16 | – | – | – | – |
| O=C(O)CN(CCN(CC(=O)O)CC(=O)O)CCN(CC(=O)O)CC(=O)O [Diethylenetriaminepentaacetic acid] | 28 | – | – | – | – |
| CC(=O)N(O)CCCCCNC(=O)CCC(=O)N(O)CCCCCNC(=O)CCC(=O)N(O)CCCCCN [Desferrioxamine] | 31 | – | – | – | – |
| CCCCC(CC)COCC(O)CO (stereo not shown) [Ethylhexyl glycerin] | – | – | 12500 | 12500 | – |
| O=P(O)(O)CN(CCN(CP(=O)(O)O)CP(=O)(O)O)CCN(CP(=O)(O)O)CP(=O)(O)O [Diethylenetriaminepentakis(methylenephosphonic acid)] | 23 | – | – | – | – |
| COC(=O)CCC(=O)OC [Dimethyl Succinate] | – | performing well | – | – | – |
